# Measurements reported in US7399826B1, “Peptide for promoting healing of fractures” (priority 2003, dated 2008).
# No end group written: not given here.
# Test system: ulnar osteotomies in New Zealand rabbits
# Assay: Ulnar osteotomy fracture healing study in rabbits
# Assay type: in vivo
# Conditions: all rabbits (study and control groups); four-week study
# Experimental: Ulnar osteotomies were carried out in forty, three-month-old New Zealand rabbits. Half of the rabbits were placed in a study group while the other half was placed in a control group. All the rabbits were anesthetized using intramuscular ketamine 35 mg/kg body weight mixed with Xylazine 5 mg/kg body weight and an ophthalmic band with gentamycin ophthalmic ointment. A dose of prophylactic intramuscular cefuraxmine 25 mg/kg body weight was also administered. The forelimb was shaved and prepped in a sterile fashion. Through a posterior incision, the muscles were retracted and the shaft of the ulna was identified. Osteotomy was carried out equidistant between the olecranon and the wrist joint. The osteotomy was irrigated with normal saline. The wound was closed in layers and dressed with betadine and opsite spray. The animals were kept together in similar conditions. On the third post-operative day, the study group was injected with about 2.5-5 mg/kg of the peptide, synthesized as described above, in 0.25 ml of sterile water around the osteotomy site, while the control group received 0.25 ml of normal saline at the osteotomy site. Every week, five rabbits in the control group and five in the study group were sacrificed and their limbs were dissected and stored in 2% formalin. The study was carried out for four weeks. […]
sequence,measurement,value
"MIFVKTLTGKTIL [SHMSP, Met-Ile-Phe-Val-Lys-Thr-Leu-Thr-Gly-Lys-Thr-Ile-Leu]","tolerability (wound infections, deaths)",no wound infections or deaths
